In ChEMBL document CHEMBL4257455, “Recent development of lipoxygenase inhibitors as anti-inflammatory agents” (Medchemcomm, 2018):
pIC50: −log10 of the molar value.

Columns and labels:
[1] = system: Mus musculus; assay: Anti-inflammatory activity in mouse assessed as inhibition of xylene induced ear edema at 30 mg/kg relative to control; format: functional; parameters: scale not given: the % may be the effect or the level left
[2] = target: T1, Seed linoleate 13S-lipoxygenase-1 (Glycine max, UniProt P08170); assay: Inhibition of soybean LOX-1 using linoleic acid as substrate preincubated for 120 secs with substrate followed by enzyme addition and measured every 30 secs for 7.5 mins by spectrophotometric analysis
T1 sequence (P08170 whole entry): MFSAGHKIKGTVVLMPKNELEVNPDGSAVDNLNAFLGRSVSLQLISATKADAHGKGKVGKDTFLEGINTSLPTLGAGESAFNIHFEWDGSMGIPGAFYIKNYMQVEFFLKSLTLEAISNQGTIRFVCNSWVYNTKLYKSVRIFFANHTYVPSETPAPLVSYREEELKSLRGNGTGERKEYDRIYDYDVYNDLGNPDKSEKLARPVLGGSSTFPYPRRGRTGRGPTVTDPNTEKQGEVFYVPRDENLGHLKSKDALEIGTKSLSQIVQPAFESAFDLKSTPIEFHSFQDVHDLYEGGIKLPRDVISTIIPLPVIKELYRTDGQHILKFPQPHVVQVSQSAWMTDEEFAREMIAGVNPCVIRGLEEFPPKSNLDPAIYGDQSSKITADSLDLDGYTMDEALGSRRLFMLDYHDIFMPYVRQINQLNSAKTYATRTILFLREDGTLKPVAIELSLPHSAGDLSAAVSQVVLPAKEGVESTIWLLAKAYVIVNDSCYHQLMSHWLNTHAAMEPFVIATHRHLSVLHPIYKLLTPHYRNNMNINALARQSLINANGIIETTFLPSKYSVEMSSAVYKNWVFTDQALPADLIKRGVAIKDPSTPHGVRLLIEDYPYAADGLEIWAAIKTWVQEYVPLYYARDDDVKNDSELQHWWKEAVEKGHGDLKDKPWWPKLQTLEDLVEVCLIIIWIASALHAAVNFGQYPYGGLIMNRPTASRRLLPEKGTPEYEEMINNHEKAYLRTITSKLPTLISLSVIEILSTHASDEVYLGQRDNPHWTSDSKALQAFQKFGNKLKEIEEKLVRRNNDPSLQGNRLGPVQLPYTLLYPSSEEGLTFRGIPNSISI

[3] = Inhibition of LOX (unknown origin); parameters: species or system Homo sapiens
[4] = Inhibition of soybean 5LOX using linoleic acid as substrate preincubated for 5 mins followed by substrate addition and measured after 20 mins by spectrophotometric analysis; parameters: species or system Glycine max
[5] = target: T2, Polyunsaturated fatty acid 5-lipoxygenase (Homo sapiens, UniProt P09917); assay: Inhibition of human N-terminal His-tagged 5-LOX expressed in Escherichia coli(Rosetta) by rhodamine 123 dye-based fluorescence assay
T2 sequence (P09917 whole entry): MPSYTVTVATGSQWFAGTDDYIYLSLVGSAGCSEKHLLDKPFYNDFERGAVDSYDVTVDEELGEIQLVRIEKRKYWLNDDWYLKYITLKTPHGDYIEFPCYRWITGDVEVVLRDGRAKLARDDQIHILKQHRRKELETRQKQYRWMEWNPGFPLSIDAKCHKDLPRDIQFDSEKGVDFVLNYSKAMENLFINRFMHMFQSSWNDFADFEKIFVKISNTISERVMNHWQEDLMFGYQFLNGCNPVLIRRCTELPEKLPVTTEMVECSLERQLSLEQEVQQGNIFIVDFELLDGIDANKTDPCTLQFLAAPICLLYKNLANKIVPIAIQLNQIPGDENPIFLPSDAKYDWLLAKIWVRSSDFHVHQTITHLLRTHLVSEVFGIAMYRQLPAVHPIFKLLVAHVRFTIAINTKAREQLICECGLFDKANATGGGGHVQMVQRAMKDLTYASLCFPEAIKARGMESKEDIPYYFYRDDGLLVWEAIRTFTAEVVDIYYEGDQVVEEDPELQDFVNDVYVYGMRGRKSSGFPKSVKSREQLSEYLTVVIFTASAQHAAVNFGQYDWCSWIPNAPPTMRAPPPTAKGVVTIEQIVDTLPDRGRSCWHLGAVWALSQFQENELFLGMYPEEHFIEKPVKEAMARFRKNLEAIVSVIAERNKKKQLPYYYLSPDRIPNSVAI

[6] = target: T3, Polyunsaturated fatty acid lipoxygenase ALOX12 (Homo sapiens, UniProt P18054); assay: Inhibition of human N-terminal His-tagged 12-LOX expressed in Escherichia coli(Rosetta) by rhodamine 123 dye-based fluorescence assay
T3 sequence (P18054 whole entry): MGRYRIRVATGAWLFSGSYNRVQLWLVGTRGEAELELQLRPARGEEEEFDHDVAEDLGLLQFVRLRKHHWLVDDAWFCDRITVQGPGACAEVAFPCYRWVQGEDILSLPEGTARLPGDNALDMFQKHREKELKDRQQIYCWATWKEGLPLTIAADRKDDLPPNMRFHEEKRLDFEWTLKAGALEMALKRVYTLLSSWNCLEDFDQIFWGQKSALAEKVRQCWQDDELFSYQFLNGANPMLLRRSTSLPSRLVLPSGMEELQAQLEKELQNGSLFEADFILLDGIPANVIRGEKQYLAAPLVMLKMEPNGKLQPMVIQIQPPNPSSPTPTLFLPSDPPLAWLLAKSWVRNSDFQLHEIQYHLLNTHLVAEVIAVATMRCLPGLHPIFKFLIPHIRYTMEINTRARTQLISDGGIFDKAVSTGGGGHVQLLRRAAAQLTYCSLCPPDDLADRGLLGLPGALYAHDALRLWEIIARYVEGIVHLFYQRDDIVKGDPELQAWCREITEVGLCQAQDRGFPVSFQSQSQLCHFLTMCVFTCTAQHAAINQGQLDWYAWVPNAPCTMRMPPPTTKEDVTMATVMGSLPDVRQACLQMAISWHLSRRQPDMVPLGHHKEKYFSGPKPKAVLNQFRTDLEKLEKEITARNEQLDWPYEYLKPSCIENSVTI

[7] = target: T4, Arachidonate 5-lipoxygenase-activating protein (Homo sapiens, UniProt P20292); assay: Inhibition of FLAP in human neutrophils assessed as decrease in LT biosynthesis preincubated for 15 mins followed by AA substrate addition by HPLC analysis
T4 sequence (P20292 whole entry): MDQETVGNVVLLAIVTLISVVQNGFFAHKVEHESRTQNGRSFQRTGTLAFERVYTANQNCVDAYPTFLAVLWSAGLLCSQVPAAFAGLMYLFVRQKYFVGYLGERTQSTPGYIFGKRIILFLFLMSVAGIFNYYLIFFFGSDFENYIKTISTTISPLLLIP

[8] = target: T2, Polyunsaturated fatty acid 5-lipoxygenase; assay: Inhibition of 5-LOX (unknown origin)
[9] = Inhibition of soybean 15-LOX using linoleic acid as substrate preincubated for 15 mins followed by substrate addition and measured up to 6 mins by spectrophotometric analysis; parameters: species or system Glycine max
[10] = target: T4, Arachidonate 5-lipoxygenase-activating protein; assay: Inhibition of FLAP in human leukocytes assessed as decrease in ionophore A23187-induced LT biosynthesis after 10 mins; format: cell-based
[11] = target: T5, Polyunsaturated fatty acid 5-lipoxygenase (Rattus norvegicus, UniProt P12527); assay: Inhibition of rat 5-LOX expressed in Sf21 insect cells preincubated for 4 mins followed by AA substrate addition and measured after 4 mins by FOX assay
T5 sequence (P12527 whole entry): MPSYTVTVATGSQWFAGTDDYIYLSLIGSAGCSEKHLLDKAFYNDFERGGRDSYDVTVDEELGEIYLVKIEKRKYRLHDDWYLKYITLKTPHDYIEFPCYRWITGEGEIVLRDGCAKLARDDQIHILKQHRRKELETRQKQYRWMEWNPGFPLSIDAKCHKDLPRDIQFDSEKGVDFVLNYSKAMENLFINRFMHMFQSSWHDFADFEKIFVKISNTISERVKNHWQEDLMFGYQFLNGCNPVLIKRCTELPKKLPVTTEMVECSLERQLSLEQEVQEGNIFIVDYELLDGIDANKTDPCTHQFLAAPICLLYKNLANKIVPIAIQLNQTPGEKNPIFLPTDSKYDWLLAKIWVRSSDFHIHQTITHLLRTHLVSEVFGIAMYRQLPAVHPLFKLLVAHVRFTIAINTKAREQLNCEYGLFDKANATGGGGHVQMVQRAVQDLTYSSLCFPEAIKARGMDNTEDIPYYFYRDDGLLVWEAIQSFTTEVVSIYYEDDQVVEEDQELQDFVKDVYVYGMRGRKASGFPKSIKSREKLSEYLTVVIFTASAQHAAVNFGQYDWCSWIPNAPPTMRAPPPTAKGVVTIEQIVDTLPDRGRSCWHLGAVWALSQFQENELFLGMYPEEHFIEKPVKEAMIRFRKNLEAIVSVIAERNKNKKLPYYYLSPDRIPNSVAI

[12] = target: T6, Polyunsaturated fatty acid lipoxygenase ALOX15 (Homo sapiens) (UniProt P16050); assay: Inhibition of 15-LOX (unknown origin) at 12.7 uM relative to control
T6 sequence (whole entry): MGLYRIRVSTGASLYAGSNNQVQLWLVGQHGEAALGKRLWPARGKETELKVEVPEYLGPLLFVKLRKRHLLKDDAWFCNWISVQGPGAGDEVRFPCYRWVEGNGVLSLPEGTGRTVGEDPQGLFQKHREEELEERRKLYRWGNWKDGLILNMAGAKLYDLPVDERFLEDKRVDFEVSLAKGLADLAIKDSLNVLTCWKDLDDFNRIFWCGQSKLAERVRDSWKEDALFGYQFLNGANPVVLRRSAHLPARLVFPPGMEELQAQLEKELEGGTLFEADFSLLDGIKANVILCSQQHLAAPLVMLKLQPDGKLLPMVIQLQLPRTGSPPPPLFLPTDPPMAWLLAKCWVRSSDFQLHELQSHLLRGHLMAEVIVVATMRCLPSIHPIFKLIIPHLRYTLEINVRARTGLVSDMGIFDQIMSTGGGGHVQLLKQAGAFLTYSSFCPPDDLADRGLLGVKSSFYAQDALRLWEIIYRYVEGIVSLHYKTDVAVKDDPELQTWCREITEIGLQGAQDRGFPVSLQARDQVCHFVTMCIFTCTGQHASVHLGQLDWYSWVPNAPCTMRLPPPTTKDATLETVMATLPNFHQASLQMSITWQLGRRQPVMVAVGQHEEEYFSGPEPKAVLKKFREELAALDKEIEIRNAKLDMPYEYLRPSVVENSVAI

[13] = target: T7, Polyunsaturated fatty acid lipoxygenase ALOX15 (Homo sapiens, UniProt P16050); assay: Inhibition of human N-terminal His-tagged 15-LOX expressed in Escherichia coli(Rosetta) by rhodamine 123 dye-based fluorescence assay
T7 sequence (P16050 whole entry): T6 sequence (whole entry)

Cc1ccc(-c2cc(C(F)(F)F)nn2-c2ccc(S(N)(=O)=O)cc2)cc1 [CELECOXIB]
Activity [1]: 46.7%

CC[C@H](C)/C=C(C)/C=C/C1=C(Br)C2=CC(=O)C(C)(O)C(=O)C2=CO1 (stereo not given in full)
pIC50 [2]: 5.49

O=C(Cc1c[nH]c2ccccc12)NN=C(c1ccccc1)c1ccccc1
pIC50 [3]: 4.27

COc1ccc2nc(NCC(O)COc3ccc4c(C)cc(=O)oc4c3)sc2c1 (stereo not given)
pIC50 [4]: 5.68

CC(C)/C=C/c1c(O)cc(-c2cc3ccc(O)cc3o2)cc1O
pIC50 [5]: 5.78
pIC50 [6]: 5.89

O=C(O)CCCc1c[nH]c2ccccc12
pIC50 [3]: 4.75

Cc1noc(-c2ccc(OCc3ccc4ccccc4n3)cc2)c1-c1ccc(Cl)cc1
pIC50 [7]: 5.36

O=C(O)Cc1c[nH]c2ccccc12 [INDOLE-3-ACETIC ACID]
pIC50 [3]: 4.37

CS(=O)(=O)c1ccc(-n2nc(-c3ccc(-c4ccccc4)cc3)c3ccccc3c2=O)cc1
pIC50 [8]: 5.21

CCCCC(=O)c1c(O)cc(O)c(C/C=C(\C)CCC=C(C)C)c1O
pIC50 [9]: 4.99

CC(C)c1ccc2c(c1)c(SC(C)(C)C)c(CC(C)(C)C(=O)O)n2Cc1ccc(Cl)cc1
pIC50 [10]: 6.99

Cc1cc(Nc2nc(-c3ccc(Cl)cc3)cs2)cc(C)c1O
pIC50 [11]: 6.90

CS(=O)(=O)c1ccc(-c2nc(SCCN(O)C(N)=O)nn2-c2ccc(Br)cc2)cc1
Activity [1]: 54.1%
pIC50 [3]: 6.07

C/C(=C\COc1cc2oc(=O)ccc2cc1O)C/C=C/C(C)(C)O
inhibition [12]: 34.8%

Cc1cc(=O)oc2cc(OCC(O)CNc3nc4ccc(Cl)cc4s3)ccc12 (stereo not given)
pIC50 [4]: 5.55

CC(C)=CCc1c(O)cc(-c2cc3ccc(O)cc3o2)cc1O [MORACIN C]
pIC50 [5]: 5.63
pIC50 [13]: 5.92
pIC50 [6]: 6.68
